Data reported in article PMC12125102, “The “specific” P-glycoprotein inhibitor zosuquidar (LY335979) also weakly inhibits human organic cation transporters” (Naunyn-Schmiedeberg's Archives of Pharmacology, 2024).

Molecular target: T1, OCT1 (organic cation transporter 1) (Homo sapiens, UniProt O15245)
T1 construct: gene SLC22A1
T1 sequence (O15245 1-554): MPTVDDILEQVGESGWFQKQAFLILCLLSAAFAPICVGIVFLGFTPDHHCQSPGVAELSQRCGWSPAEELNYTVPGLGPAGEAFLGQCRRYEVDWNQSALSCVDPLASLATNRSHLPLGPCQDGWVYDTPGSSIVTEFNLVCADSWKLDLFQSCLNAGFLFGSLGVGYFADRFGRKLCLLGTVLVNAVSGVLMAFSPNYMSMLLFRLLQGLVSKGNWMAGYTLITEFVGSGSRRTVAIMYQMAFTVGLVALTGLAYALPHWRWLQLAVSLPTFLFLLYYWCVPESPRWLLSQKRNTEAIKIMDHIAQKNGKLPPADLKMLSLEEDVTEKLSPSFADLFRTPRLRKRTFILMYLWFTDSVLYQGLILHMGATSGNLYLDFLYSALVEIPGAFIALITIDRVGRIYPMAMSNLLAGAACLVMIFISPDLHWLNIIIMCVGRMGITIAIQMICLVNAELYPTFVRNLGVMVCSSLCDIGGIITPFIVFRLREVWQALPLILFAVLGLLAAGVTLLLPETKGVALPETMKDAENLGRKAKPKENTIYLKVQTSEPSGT
Assay: inhibition of metformin uptake in HEK293-Flp-In-OCT1 cells, […] min pre-incubation, UPLC-MS/MS
Assay type: cell-based

IC50: 7.5 ± 3.7 µM
Structure (SMILES): O[C@@H](COc1cccc2ncccc12)CN1CCN([C@@H]2c3ccccc3[C@@H]3[C@H](c4ccccc42)C3(F)F)CC1 [zosuquidar]
